PubChem BioAssay (NCI)
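Growth conditions: 96-well plates. Treatment: test compound, 48 hours, 5 concentrations. Analysis: linear interpolation between bracketing concentrations; unreached endpoints set to highest concentration. GI50: concentration for 50% inhibition of growth. TGI marks complete inhibition of growth.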

Assays:
Assay in all cases: DTP human tumour cell line panel, 48 h
SNB-19 CNS = system: SNB-19 CNS
NCI-H522 lung = system: NCI-H522 lung
MDA-MB-231 breast = system: MDA-MB-231 breast
SNB-75 CNS = system: SNB-75 CNS
OVCAR-3 ovarian = system: OVCAR-3 ovarian
SK-MEL-28 melanoma = system: SK-MEL-28 melanoma
RXF 393 renal = system: RXF 393 renal
UO-31 renal = system: UO-31 renal
DMS 114 small cell lung = system: DMS 114 small cell lung
RPMI-8226 leukemia = system: RPMI-8226 leukemia
SF-268 CNS = system: SF-268 CNS
HS 578T breast = system: HS 578T breast
UACC-257 melanoma = system: UACC-257 melanoma
BT-549 breast = system: BT-549 breast
CAKI-1 renal = system: CAKI-1 renal
LOX IMVI melanoma = system: LOX IMVI melanoma
SF-539 CNS = system: SF-539 CNS
SK-OV-3 ovarian = system: SK-OV-3 ovarian
M19-MEL melanoma = system: M19-MEL melanoma
OVCAR-4 ovarian = system: OVCAR-4 ovarian
HT29 colon = system: HT29 colon
SF-295 CNS = system: SF-295 CNS
KM20L2 colon = system: KM20L2 colon
SNB-78 CNS = system: SNB-78 CNS
MCF7 breast = system: MCF7 breast
SW-620 colon = system: SW-620 colon
PC-3 prostate = system: PC-3 prostate
HCC-2998 colon = system: HCC-2998 colon
DU-145 prostate = system: DU-145 prostate
NCI-H226 lung = system: NCI-H226 lung
ACHN renal = system: ACHN renal
HCT-116 colon = system: HCT-116 colon
COLO 205 colon = system: COLO 205 colon
786-0 renal = system: 786-0 renal
HOP-62 NSCLC = system: HOP-62 NSCLC
KM12 colon = system: KM12 colon
HL-60(TB) leukemia = system: HL-60(TB) leukemia
SK-MEL-5 melanoma = system: SK-MEL-5 melanoma
HCT-15 colon = system: HCT-15 colon
MDA-MB-435 = system: MDA-MB-435
CCRF-CEM leukemia = system: CCRF-CEM leukemia
IGROV1 ovarian = system: IGROV1 ovarian
MOLT-4 leukemia = system: MOLT-4 leukemia
EKVX NSCLC = system: EKVX NSCLC
SR leukemia = system: SR leukemia
SN12C renal = system: SN12C renal
TK-10 renal = system: TK-10 renal
U251 CNS = system: U251 CNS
LXFL 529 NSCLC = system: LXFL 529 NSCLC
NCI/ADR-RES ovarian = system: NCI/ADR-RES ovarian
K-562 leukemia = system: K-562 leukemia
OVCAR-5 ovarian = system: OVCAR-5 ovarian
OVCAR-8 ovarian = system: OVCAR-8 ovarian
DLD-1 colon = system: DLD-1 colon
HOP-92 NSCLC = system: HOP-92 NSCLC
RXF-631 renal = system: RXF-631 renal
XF 498 CNS = system: XF 498 CNS
UACC-62 melanoma = system: UACC-62 melanoma
A549 NSCLC = system: A549 NSCLC
NCI-H23 lung = system: NCI-H23 lung
A498 renal = system: A498 renal
M14 melanoma = system: M14 melanoma
SK-MEL-2 melanoma = system: SK-MEL-2 melanoma
NCI-H460 lung = system: NCI-H460 lung
T-47D breast = system: T-47D breast
MALME-3M melanoma = system: MALME-3M melanoma
DMS 273 small cell lung = system: DMS 273 small cell lung

`CN(C)CCONC(=O)C12CC3CC(CC(C3)C1)C2` was tested, and the TGI (SNB-19 CNS) was > 100 µM, the TGI (NCI-H522 lung) was > 100 µM and the GI50 (MDA-MB-231 breast) was > 100 µM. For the same compound, the TGI (MDA-MB-231 breast) was > 100 µM, the TGI (SNB-75 CNS) was > 100 µM and the TGI (OVCAR-3 ovarian) was > 100 µM. For the same compound, the TGI (SK-MEL-28 melanoma) was > 100 µM, the TGI (RXF 393 renal) was > 100 µM and the TGI (UO-31 renal) was > 100 µM. The TGI (DMS 114 small cell lung) was > 100 µM, the TGI (RPMI-8226 leukemia) was > 100 µM and the TGI (SF-268 CNS) was > 100 µM. For the same compound, the GI50 (HS 578T breast) was > 100 µM, the TGI (HS 578T breast) was > 100 µM and the TGI (UACC-257 melanoma) was > 100 µM. For the same compound, the GI50 (BT-549 breast) was > 100 µM, the TGI (BT-549 breast) was > 100 µM and the TGI (CAKI-1 renal) was > 100 µM. For the same compound, the TGI (LOX IMVI melanoma) was > 100 µM, the TGI (SF-539 CNS) was > 100 µM and the TGI (SK-OV-3 ovarian) was > 100 µM. The TGI (M19-MEL melanoma) was > 100 µM, the GI50 (OVCAR-4 ovarian) was > 100 µM and the TGI (OVCAR-4 ovarian) was > 100 µM. The TGI (HT29 colon) was > 100 µM, the TGI (SF-295 CNS) was > 100 µM and the TGI (KM20L2 colon) was > 100 µM. For the same compound, the TGI (SNB-78 CNS) was 69.2 µM, the GI50 (MCF7 breast) was > 100 µM and the TGI (MCF7 breast) was > 100 µM. The GI50 (SW-620 colon) was > 100 µM, the TGI (SW-620 colon) was > 100 µM and the GI50 (PC-3 prostate) was > 100 µM. For the same compound, the TGI (PC-3 prostate) was > 100 µM, the GI50 (HCC-2998 colon) was > 100 µM and the TGI (HCC-2998 colon) was > 100 µM. The GI50 (DU-145 prostate) was > 100 µM, the TGI (DU-145 prostate) was > 100 µM and the TGI (NCI-H226 lung) was > 100 µM. The TGI (ACHN renal) was > 100 µM, the TGI (HCT-116 colon) was > 100 µM and the TGI (COLO 205 colon) was > 100 µM. For the same compound, the TGI (786-0 renal) was > 100 µM, the TGI (HOP-62 NSCLC) was > 100 µM and the TGI (KM12 colon) was > 100 µM. For the same compound, the TGI (HL-60(TB) leukemia) was > 100 µM, the TGI (SK-MEL-5 melanoma) was > 100 µM and the TGI (HCT-15 colon) was > 100 µM. The GI50 (MDA-MB-435) was > 100 µM, the TGI (MDA-MB-435) was > 100 µM and the TGI (CCRF-CEM leukemia) was > 100 µM. The TGI (IGROV1 ovarian) was > 100 µM, the TGI (MOLT-4 leukemia) was > 100 µM and the TGI (EKVX NSCLC) was > 100 µM. The TGI (SR leukemia) was > 100 µM, the TGI (SN12C renal) was > 100 µM and the TGI (TK-10 renal) was > 100 µM. For the same compound, the TGI (U251 CNS) was > 100 µM, the TGI (LXFL 529 NSCLC) was > 100 µM and the GI50 (NCI/ADR-RES ovarian) was > 100 µM. For the same compound, the TGI (NCI/ADR-RES ovarian) was > 100 µM, the TGI (K-562 leukemia) was > 100 µM and the TGI (OVCAR-5 ovarian) was > 100 µM. The TGI (OVCAR-8 ovarian) was > 100 µM, the TGI (DLD-1 colon) was > 100 µM and the TGI (HOP-92 NSCLC) was > 100 µM. For the same compound, the TGI (RXF-631 renal) was > 100 µM, the TGI (XF 498 CNS) was > 100 µM and the TGI (UACC-62 melanoma) was > 100 µM. For the same compound, the TGI (A549 NSCLC) was > 100 µM, the TGI (NCI-H23 lung) was > 100 µM and the TGI (A498 renal) was > 100 µM. For the same compound, the TGI (M14 melanoma) was > 100 µM, the TGI (SK-MEL-2 melanoma) was > 100 µM and the TGI (NCI-H460 lung) was > 100 µM. For the same compound, the GI50 (T-47D breast) was > 100 µM and the TGI (T-47D breast) was > 100 µM.
`O=C(Cc1ccc(F)cc1)NC1=C(Cl)C(=O)c2ccccc2C1=O` was tested, and the TGI (SNB-19 CNS) was > 100 µM, the TGI (NCI-H522 lung) was 1.25 µM and the TGI (SNB-75 CNS) was 18.3 µM. For the same compound, the TGI (OVCAR-3 ovarian) was 9.33 µM, the TGI (SK-MEL-28 melanoma) was 11.6 µM and the TGI (RXF 393 renal) was 4.11 µM. For the same compound, the TGI (UO-31 renal) was 7.88 µM, the TGI (DMS 114 small cell lung) was 1.8 µM and the TGI (RPMI-8226 leukemia) was 4.14 µM. The TGI (SF-268 CNS) was 15.1 µM, the TGI (UACC-257 melanoma) was 6.56 µM and the TGI (CAKI-1 renal) was 19.8 µM. It also gave a TGI (LOX IMVI melanoma) of 9.05 µM, a TGI (SF-539 CNS) of 5.02 µM and a TGI (SK-OV-3 ovarian) of 58.3 µM. It also gave a TGI (M19-MEL melanoma) of 14.7 µM, a TGI (OVCAR-4 ovarian) of 9.28 µM and a TGI (HT29 colon) of 35.4 µM. For the same compound, the TGI (SF-295 CNS) was 12 µM, the TGI (KM20L2 colon) was 34.8 µM and the TGI (SNB-78 CNS) was 34.7 µM. It also gave a TGI (SW-620 colon) of 5.76 µM, a TGI (HCC-2998 colon) of 16 µM and a TGI (NCI-H226 lung) of 12.7 µM. The TGI (ACHN renal) was 3.4 µM, the TGI (HCT-116 colon) was 11.9 µM and the TGI (MALME-3M melanoma) was 7.89 µM. For the same compound, the TGI (COLO 205 colon) was 12.7 µM, the TGI (786-0 renal) was 19.5 µM and the TGI (HOP-62 NSCLC) was 44.6 µM. It also gave a TGI (KM12 colon) of 14.4 µM, a TGI (HL-60(TB) leukemia) of 0.39 µM and a TGI (SK-MEL-5 melanoma) of 11.3 µM. The TGI (HCT-15 colon) was 7.43 µM, the TGI (CCRF-CEM leukemia) was > 100 µM and the TGI (IGROV1 ovarian) was 6.63 µM. The TGI (EKVX NSCLC) was 16 µM, the TGI (SR leukemia) was 3.34 µM and the TGI (SN12C renal) was 13.8 µM. It also gave a TGI (TK-10 renal) of 14.5 µM, a TGI (U251 CNS) of 11.5 µM and a TGI (LXFL 529 NSCLC) of 10.5 µM. The TGI (OVCAR-5 ovarian) was 13.1 µM, the TGI (OVCAR-8 ovarian) was 4.05 µM and the TGI (DLD-1 colon) was 4.24 µM. The TGI (HOP-92 NSCLC) was 3.68 µM, the TGI (RXF-631 renal) was > 50 µM and the TGI (XF 498 CNS) was 4.02 µM. It also gave a TGI (UACC-62 melanoma) of 9.87 µM, a TGI (A549 NSCLC) of 16.4 µM and a TGI (NCI-H23 lung) of 5.94 µM. The TGI (DMS 273 small cell lung) was 13.6 µM, the TGI (M14 melanoma) was 12.4 µM and the TGI (SK-MEL-2 melanoma) was 6.33 µM. It also gave a TGI (NCI-H460 lung) of 13.8 µM.
